The NIST ThermoML archive (doi:10.1007/s10765-010-0766-0)

Assay: wn = mass fraction of the nth substance listed
Conditions: Liquid, Pycnometric method, w2 = 0.4981

FC(F)C(F)(F)F [pentafluoroethane] + FCF
Conditions | mass density [kg/m3]
332.15 K, 7002 kPa | 921.1
333.15 K, 7333 kPa | 920.9
333.15 K, 7355 kPa | 921
333.15 K, 7370 kPa | 921.1
334.15 K, 7700 kPa | 920.8
334.15 K, 7723 kPa | 920.9
334.15 K, 7736 kPa | 921
335.15 K, 8069 kPa | 920.7
335.15 K, 8090 kPa | 920.8
335.15 K, 8104 kPa | 920.9
336.15 K, 8438 kPa | 920.7
336.15 K, 8457 kPa | 920.7
336.15 K, 8472 kPa | 920.8
337.15 K, 8807 kPa | 920.6
337.15 K, 8826 kPa | 920.6
337.15 K, 8840 kPa | 920.8
338.15 K, 9176 kPa | 920.5
338.15 K, 9194 kPa | 920.5
338.15 K, 9209 kPa | 920.7
339.15 K, 9546 kPa | 920.4
339.15 K, 9563 kPa | 920.4
339.15 K, 9579 kPa | 920.6
340.15 K, 9916 kPa | 920.3
340.15 K, 9933 kPa | 920.3
340.15 K, 9949 kPa | 920.5
341.15 K, 10286 kPa | 920.3
341.15 K, 10302 kPa | 920.2
341.15 K, 10320 kPa | 920.4
342.15 K, 10657 kPa | 920.2
342.15 K, 10672 kPa | 920.1
342.15 K, 10691 kPa | 920.4
343.15 K, 11028 kPa | 920.1
343.15 K, 11043 kPa | 920.1
343.15 K, 11061 kPa | 920.3
344.15 K, 11399 kPa | 920.1
344.15 K, 11413 kPa | 920
344.15 K, 11431 kPa | 920.2
345.15 K, 6187 kPa | 774
345.15 K, 11770 kPa | 920
345.15 K, 11784 kPa | 919.9
345.15 K, 11802 kPa | 920.1
346.15 K, 6420 kPa | 774.1
346.15 K, 12143 kPa | 919.9
346.15 K, 12155 kPa | 919.8
346.15 K, 12174 kPa | 920.1
347.15 K, 6655 kPa | 774
347.15 K, 6657 kPa | 773.9
347.15 K, 12515 kPa | 919.8
347.15 K, 12527 kPa | 919.7
347.15 K, 12547 kPa | 920
348.15 K, 6890 kPa | 773.9
348.15 K, 6893 kPa | 773.9
348.15 K, 12887 kPa | 919.8
348.15 K, 12899 kPa | 919.6
348.15 K, 12919 kPa | 919.9
349.15 K, 7127 kPa | 773.9
349.15 K, 7130 kPa | 773.8
349.15 K, 13259 kPa | 919.7
349.15 K, 13271 kPa | 919.6
349.15 K, 13292 kPa | 919.8
350.15 K, 7364 kPa | 773.8
350.15 K, 7368 kPa | 773.8
350.15 K, 13631 kPa | 919.6
350.15 K, 13643 kPa | 919.5
350.15 K, 13664 kPa | 919.7
351.15 K, 7602 kPa | 773.8
351.15 K, 7606 kPa | 773.7
351.15 K, 14004 kPa | 919.5
351.15 K, 14015 kPa | 919.4
351.15 K, 14036 kPa | 919.6
352.15 K, 7841 kPa | 773.7
352.15 K, 7845 kPa | 773.6
352.15 K, 14377 kPa | 919.4
352.15 K, 14387 kPa | 919.3
352.15 K, 14409 kPa | 919.6
353.15 K, 8080 kPa | 773.7
353.15 K, 8084 kPa | 773.6
353.15 K, 14750 kPa | 919.3
353.15 K, 14761 kPa | 919.2
353.15 K, 14783 kPa | 919.5
354.15 K, 8320 kPa | 773.6
354.15 K, 8324 kPa | 773.5
354.15 K, 15123 kPa | 919.2
354.15 K, 15133 kPa | 919.1
354.15 K, 15157 kPa | 919.4
355.15 K, 8560 kPa | 773.6
355.15 K, 8565 kPa | 773.5
355.15 K, 15496 kPa | 919.1
355.15 K, 15507 kPa | 919
355.15 K, 15531 kPa | 919.3
356.15 K, 8801 kPa | 773.5
356.15 K, 8806 kPa | 773.4
356.15 K, 15869 kPa | 919.1
356.15 K, 15880 kPa | 919
356.15 K, 15904 kPa | 919.2
